The source of these data is patent US11992494B2, “Cyclopentathiophene carboxamide derivatives as platelet activating factor receptor antagonists” (Boehringer Ingelheim International GmbH, priority 2021, dated 2024).

Sequence of PAFR (P25105 whole entry): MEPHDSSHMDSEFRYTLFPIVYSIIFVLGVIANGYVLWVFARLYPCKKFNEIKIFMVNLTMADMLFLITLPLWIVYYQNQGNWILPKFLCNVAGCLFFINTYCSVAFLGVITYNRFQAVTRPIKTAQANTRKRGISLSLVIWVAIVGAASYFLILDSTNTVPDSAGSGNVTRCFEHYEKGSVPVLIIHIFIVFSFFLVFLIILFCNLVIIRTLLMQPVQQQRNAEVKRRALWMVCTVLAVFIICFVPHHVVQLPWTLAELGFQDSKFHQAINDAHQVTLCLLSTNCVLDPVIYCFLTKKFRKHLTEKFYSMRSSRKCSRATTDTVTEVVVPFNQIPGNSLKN

For the first test, the target named is PAFR (Homo sapiens, UniProt P25105). As to the kind of experiment: cellular HTRF IP1 assay: inhibition of PAFR activation by PAF C-16 ligand (endpoint assay). The format is cell-based. Further details: expressed in transfected cells; host or cells: HEK293. The following applies: HEK293 cells overexpressing human PAFR; PAF ligand 11 nM; Table 2. Here is the method: The ability of compounds of formula (I) to inhibit the activation of the PAF receptor (PAFR) by the PAF C-16 ligand (PAF) is determined using the following cellular HTRF IP1 assay (IP1 Gq assay kit from Cisbio, Cat. no.: 62IP1APEJ) in assay buffer (1×HBSS, 20 mM Hepes, pH 7.4, 50 mM LiCl and containing 0.1% (w/v) BSA):
Evaluation of the Inhibition of PAFR Activation Using an Endpoint Assay
HEK293 cells overexpressing human PAFR (produced in-house) are seeded into a Poly-D-Lysine coated 384 well white cell culture microtiter assay plate with lid (15.000 cells per well). Subsequently, the plates are incubated over night at 37° C./5% CO2. On the next day, cells are being washed and subsequently, various concentrations of the test compounds (compounds in 100% DMSO; final concentration of DMSO in wells is 1%) are added to the assay plate via Echo 555 acoustic liquid handler. Plates are then incubated with lid for 90 minutes at 37° C./5% CO2. Thereafter, PAF ligand (Cayman Chemical Company, Item no.: 60900) is added at a final concentration of 11 nM. Plates are then incubated with lid for 60 minutes at 37° C./5% CO2. Then, 5 μl per well of Anti-IP1-Antibody-Cryptate solution and 5 μl per well of IP1-d2 solution are added to all wells of the plate and the plate is incubated for another 60 minutes light protected at room temperature. The emissions at 620 nm and 665 nm (Excitation wavelength: 320 nm) are measured using an Envision Reader (PerkinElmer).
For orientation: Time-resolved FRET reads energy transfer from a long-lived donor to a nearby acceptor.
The term IC50 denotes the concentration that gives 50% inhibition. `Cc1nnc2n1-c1sc3c(c1C(c1ccccc1Cl)=NC21CC1)C[C@H](C(=O)N1CCO[C@@H](C)C1)C3` [Example 106, (13′S)-9′-(2-chlorophenyl)-3′-methyl-13′-[(2S)-2-methylmorpholine-4-carbonyl]-16′-thia-2′,4′,5′,8′-tetraazaspiro[cyclopropane-1,7′-tetracyclo-[8.6.0.0^2,6.0^11,15]hexadecane}-1′(10′),3′,5′,8′,11′(15′)-pentaene] registered an IC50 of 7.5 nM.
The compound `Cc1nnc2n1-c1sc3c(c1C(c1ccccc1Cl)=NC21CC1)C[C@H](C(=O)N[C@@H]1CCc2c1ccnc2N)C3` [Example 103] gave a 50% inhibitory concentration (IC50) of 14 nM.
Turning to `Cc1nnc2n1-c1sc3c(c1C(c1ccccc1Cl)=NC21CC1)C[C@H](C(=O)NC1CCOC(C)(C)C1)C3` (stereo partly drawn) [Example 33], half-maximal inhibition (IC50) was put at 11 nM.
As for `Cc1nnc2n1-c1sc3c(c1C(c1ccccc1Cl)=NC21CC1)C[C@H](C(=O)N(C)C1CCCCCC1)C3` [Example 75], the IC50 worked out at 1.5 nM.
As for `Cc1nnc2n1-c1sc3c(c1C(c1ccccc1Cl)=NC21CC1)C[C@H](C(=O)NC1CC2(CCC2)C1)C3` [Example 80], the IC50 amounted to 2 nM.
On to `Cc1nnc2n1-c1sc3c(c1C(c1ccccc1Cl)=NC21CC1)C[C@H](C(=O)NC1CCOCC1)C3` [Example 51], for which the half-maximal inhibitory concentration (IC50) turned out to be 12 nM.
In turn, `Cc1nnc2n1-c1sc3c(c1C(c1ccccc1Cl)=NC21CC1)C[C@H](C(=O)N[C@H]1COC[C@H]1c1ccccc1)C3` [Example 39] displayed an IC50 of 3.1 nM.
The same measure, in the same setting: in the case of `CCN(C(=O)[C@@H]1Cc2sc3c(c2C1)C(c1ccccc1Cl)=NC1(CC1)c1nnc(C)n1-3)C1CCCCC1` [Example 91] it was 1.5 nM; in that of `Cc1nnc2n1-c1sc3c(c1C(c1ccccc1Cl)=NC21CC1)C[C@H](C(=O)N[C@H]1CC[C@@H](C(F)(F)F)CC1)C3` [Example 52], 1.8 nM.
Same read-out and setting: the result for `Cc1nnc2n1-c1sc3c(c1C(c1ccccc1Cl)=NC21CC1)C[C@H](C(=O)NC1CCC12CCOCC2)C3` (stereo partly drawn) [Example 64] reads 8.6 nM; that for `Cc1nnc2n1-c1sc3c(c1C(c1ccccc1Cl)=NC21CC1)C[C@H](C(=O)NC1CCc2ncsc2C1)C3` (stereo partly drawn) [Example 34], 3.8 nM; that for `Cc1nnc2n1-c1sc3c(c1C(c1ccccc1Cl)=NC21CC1)C[C@H](C(=O)NCCOC(F)(F)F)C3` [Example 67], 1.7 nM.
Regarding `Cc1nnc2n1-c1sc3c(c1C(c1ccccc1Cl)=NC21CC1)C[C@H](C(=O)NC1[C@H]2CCC[C@@H]12)C3` (stereo partly drawn) [Example 19], 1.6 nM corresponded to half-maximal inhibition (IC50).
In turn, `Cc1nnc2n1-c1sc3c(c1C(c1ccccc1Cl)=NC21CC1)C[C@H](C(=O)N(C)C1CCS(=O)(=O)C1)C3` (stereo partly drawn) [Example 89] showed an IC50 of 15 nM.
As for `CCC12CC(NC(=O)[C@@H]3Cc4sc5c(c4C3)C(c3ccccc3Cl)=NC3(CC3)c3nnc(C)n3-5)(C1)C2` [Example 109], the concentration for half-maximal inhibition (IC50) was determined as 1.1 nM.
For the compound `Cc1nnc2n1-c1sc3c(c1C(c1ccccc1Cl)=NC21CC1)C[C@H](C(=O)N1CC2CC1C2)C3` [Example 11], half-maximal inhibition (IC50) required 3.6 nM.
Regarding `Cc1nnc2n1-c1sc3c(c1C(c1ccccc1Cl)=NC21CC1)C[C@H](C(=O)NC1CC(F)(F)C1)C3` [Example 27], the half-inhibitory concentration (IC50) came out at 2.1 nM.
With `Cc1nnc2n1-c1sc3c(c1C(c1ccccc1Cl)=NC21CC1)C[C@H](C(=O)NC1(c2ccccn2)CC1)C3` [Example 87], half-maximal inhibition (IC50) was put at 4.9 nM.
Still for that read-out and setting: the result for `Cc1nnc2n1-c1sc3c(c1C(c1ccccc1Cl)=NC21CC1)C[C@H](C(=O)NC1(c2cncnc2)CC1)C3` [Example 117] reads 28 nM; that for `Cc1nnc2n1-c1sc3c(c1C(c1ccccc1Cl)=NC21CC1)C[C@H](C(=O)N[C@H]1COC[C@H]1C(C)C)C3` [Example 88], 5.1 nM.
Regarding `Cc1nnc2n1-c1sc3c(c1C(c1ccccc1Cl)=NC21CC1)C[C@H](C(=O)N[C@H]1C[C@@H]1C)C3` [Example 12], the IC50 was found to be 2.2 nM.

The same test, now with this note: S-bepafant and its methylated derivatives in the above-mentioned assay.
`Cc1nnc2n1-c1sc3c(c1C(c1ccccc1Cl)=NC2)C[C@H](C(=O)N1CCOCC1)C3` [S-bepafant, reference compound] yielded a concentration for half-maximal inhibition (IC50) of 73.5 nM.

Still in this test, the particulars now being: dedicated head-to-head comparison assay run: cyclopropylene vs di-methyl / cyclobutylene analogues.
Regarding `Cc1nnc2n1-c1sc3c(c1C(c1ccccc1Cl)=NC21CC1)C[C@H](C(=O)NC1CCOCC1)C3` [Example 51], inhibition was half-maximal at 9.7 nM (IC50).
The compound `Cc1nnc2n1-c1sc3c(c1C(c1ccccc1Cl)=NC21CC1)C[C@H](C(=O)NC1(c2ccccn2)CC1)C3` [Example 87] yielded an IC50 of 5.6 nM.
